Measurements: ChEMBL document CHEMBL4804284

Columns and labels:
Parameters in all cases: scale not given: the % may be the effect or the level left
[1] = molecular target: Tyrosine-protein kinase Fgr (Homo sapiens) (UniProt P09769); test: Inhibition of DNA-tagged human FGR assessed as percent of control at 50000 nM by qPCR analysis relative to control
[2] = molecular target: Dual specificity mitogen-activated protein kinase kinase 1 (Homo sapiens) (UniProt Q02750); test: Inhibition of DNA-tagged human MEK1 assessed as percent of control at 50000 nM by qPCR analysis relative to control
[3] = molecular target: Ribosomal protein S6 kinase alpha-1 (Homo sapiens) (UniProt Q15418); test: Inhibition of DNA-tagged human C-terminal RSK1 kinase domain 2 assessed as percent of control at 50000 nM by qPCR analysis relative to control
Chain of Ribosomal protein S6 kinase alpha-1 (Homo sapiens) (Q15418 whole entry, the tested form may be a part): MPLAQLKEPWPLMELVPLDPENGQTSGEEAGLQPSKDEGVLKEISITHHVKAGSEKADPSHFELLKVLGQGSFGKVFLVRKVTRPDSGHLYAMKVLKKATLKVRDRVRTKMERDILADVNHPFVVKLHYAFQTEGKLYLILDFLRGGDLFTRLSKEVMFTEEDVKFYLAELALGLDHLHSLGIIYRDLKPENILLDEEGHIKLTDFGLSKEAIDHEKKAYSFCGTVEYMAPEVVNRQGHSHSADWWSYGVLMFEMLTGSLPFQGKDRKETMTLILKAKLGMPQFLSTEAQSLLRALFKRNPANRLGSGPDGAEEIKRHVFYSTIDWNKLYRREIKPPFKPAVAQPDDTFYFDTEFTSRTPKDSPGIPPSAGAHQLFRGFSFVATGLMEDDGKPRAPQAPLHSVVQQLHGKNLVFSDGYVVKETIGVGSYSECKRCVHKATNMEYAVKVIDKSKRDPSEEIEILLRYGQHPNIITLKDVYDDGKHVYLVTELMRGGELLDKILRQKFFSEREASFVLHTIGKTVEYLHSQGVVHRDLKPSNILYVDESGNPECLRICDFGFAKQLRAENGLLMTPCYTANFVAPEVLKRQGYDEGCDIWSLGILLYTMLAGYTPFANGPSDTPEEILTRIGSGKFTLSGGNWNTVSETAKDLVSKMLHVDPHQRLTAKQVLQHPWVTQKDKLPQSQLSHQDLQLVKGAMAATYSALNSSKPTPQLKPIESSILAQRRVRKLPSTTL

[4] = molecular target: 5'-AMP-activated protein kinase catalytic subunit alpha-2 (Homo sapiens) (UniProt P54646); test: Inhibition of DNA-tagged human AMPK-alpha2 assessed as percent of control at 50000 nM by qPCR analysis relative to control
[5] = molecular target: Serine/threonine-protein kinase LATS2 (Homo sapiens) (UniProt Q9NRM7); test: Inhibition of DNA-tagged human LATS2 assessed as percent of control at 50000 nM by qPCR analysis relative to control
Chain of Serine/threonine-protein kinase LATS2 (Homo sapiens) (Q9NRM7 whole entry): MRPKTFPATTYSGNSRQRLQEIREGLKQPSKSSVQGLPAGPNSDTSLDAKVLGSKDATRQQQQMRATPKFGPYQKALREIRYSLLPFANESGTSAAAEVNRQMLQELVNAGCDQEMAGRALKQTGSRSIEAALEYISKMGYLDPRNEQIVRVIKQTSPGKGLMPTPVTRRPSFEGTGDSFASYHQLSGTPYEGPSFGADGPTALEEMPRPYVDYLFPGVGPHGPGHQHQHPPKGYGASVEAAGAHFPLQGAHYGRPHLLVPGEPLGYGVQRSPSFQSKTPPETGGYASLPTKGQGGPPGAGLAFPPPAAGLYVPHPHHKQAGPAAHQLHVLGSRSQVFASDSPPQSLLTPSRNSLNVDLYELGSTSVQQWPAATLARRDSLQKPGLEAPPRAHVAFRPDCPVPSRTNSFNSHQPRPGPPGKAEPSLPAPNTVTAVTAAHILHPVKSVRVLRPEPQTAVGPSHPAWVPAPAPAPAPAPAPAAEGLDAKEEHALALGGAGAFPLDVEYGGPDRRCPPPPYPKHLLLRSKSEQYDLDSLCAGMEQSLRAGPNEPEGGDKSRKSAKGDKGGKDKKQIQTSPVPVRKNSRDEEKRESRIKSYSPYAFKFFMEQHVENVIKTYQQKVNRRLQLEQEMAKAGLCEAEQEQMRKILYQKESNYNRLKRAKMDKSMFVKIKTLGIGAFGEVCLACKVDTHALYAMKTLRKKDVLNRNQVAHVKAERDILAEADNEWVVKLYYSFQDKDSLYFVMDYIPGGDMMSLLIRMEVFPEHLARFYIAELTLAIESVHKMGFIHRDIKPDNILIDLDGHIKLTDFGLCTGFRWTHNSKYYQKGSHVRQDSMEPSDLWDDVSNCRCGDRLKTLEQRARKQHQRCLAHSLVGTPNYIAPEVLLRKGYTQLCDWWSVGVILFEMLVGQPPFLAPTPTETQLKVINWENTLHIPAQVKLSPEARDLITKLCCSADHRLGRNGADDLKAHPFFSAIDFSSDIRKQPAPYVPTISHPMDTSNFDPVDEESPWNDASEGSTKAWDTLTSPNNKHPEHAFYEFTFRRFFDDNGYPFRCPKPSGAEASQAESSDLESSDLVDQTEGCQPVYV

[6] = molecular target: Tyrosine-protein kinase Mer (Homo sapiens) (UniProt Q12866); test: Inhibition of DNA-tagged human MERTK assessed as percent of control at 50000 nM by qPCR analysis relative to control
[7] = molecular target: Dual specificity mitogen-activated protein kinase kinase 6 (Homo sapiens) (UniProt P52564); test: Inhibition of DNA-tagged human MEK6 assessed as percent of control at 50000 nM by qPCR analysis relative to control
[8] = molecular target: Tyrosine-protein kinase BTK (Homo sapiens) (UniProt Q06187); test: Inhibition of DNA-tagged human BTK assessed as percent of control at 50000 nM by qPCR analysis relative to control
Chain of Tyrosine-protein kinase BTK (Homo sapiens) (Q06187 whole entry): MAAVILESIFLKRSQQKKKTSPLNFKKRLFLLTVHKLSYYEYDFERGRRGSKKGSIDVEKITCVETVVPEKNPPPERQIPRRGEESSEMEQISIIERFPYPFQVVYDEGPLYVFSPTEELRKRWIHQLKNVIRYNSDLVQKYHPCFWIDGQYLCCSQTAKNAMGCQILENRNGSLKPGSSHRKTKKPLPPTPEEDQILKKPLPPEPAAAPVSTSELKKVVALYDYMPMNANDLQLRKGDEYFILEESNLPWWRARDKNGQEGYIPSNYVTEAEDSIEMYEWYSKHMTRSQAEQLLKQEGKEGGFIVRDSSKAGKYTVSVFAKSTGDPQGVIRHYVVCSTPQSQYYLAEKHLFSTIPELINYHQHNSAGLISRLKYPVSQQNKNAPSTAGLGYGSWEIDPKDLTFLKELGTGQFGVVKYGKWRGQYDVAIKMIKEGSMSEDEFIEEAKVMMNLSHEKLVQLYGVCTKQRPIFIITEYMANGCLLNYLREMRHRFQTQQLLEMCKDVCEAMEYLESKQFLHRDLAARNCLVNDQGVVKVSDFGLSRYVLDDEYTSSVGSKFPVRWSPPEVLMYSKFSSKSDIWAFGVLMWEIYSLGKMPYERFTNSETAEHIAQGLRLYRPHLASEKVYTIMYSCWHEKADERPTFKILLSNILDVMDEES

[9] = test system: Tyrosine-protein kinase ABL1 (Homo sapiens), P00519 [F317L]; test: Inhibition of DNA-tagged phosphorylated human ABL1 F317L mutant assessed as percent of control at 50000 nM by qPCR analysis relative to control
[10] = molecular target: Ephrin type-A receptor 1 (Homo sapiens) (UniProt P21709); test: Inhibition of DNA-tagged human EPHA1 assessed as percent of control at 50000 nM by qPCR analysis relative to control
[11] = molecular target: Serine/threonine-protein kinase 35 (Homo sapiens) (UniProt Q8TDR2); test: Inhibition of DNA-tagged human STK35 assessed as percent of control at 50000 nM by qPCR analysis relative to control
Chain of Serine/threonine-protein kinase 35 (Homo sapiens) (Q8TDR2 whole entry): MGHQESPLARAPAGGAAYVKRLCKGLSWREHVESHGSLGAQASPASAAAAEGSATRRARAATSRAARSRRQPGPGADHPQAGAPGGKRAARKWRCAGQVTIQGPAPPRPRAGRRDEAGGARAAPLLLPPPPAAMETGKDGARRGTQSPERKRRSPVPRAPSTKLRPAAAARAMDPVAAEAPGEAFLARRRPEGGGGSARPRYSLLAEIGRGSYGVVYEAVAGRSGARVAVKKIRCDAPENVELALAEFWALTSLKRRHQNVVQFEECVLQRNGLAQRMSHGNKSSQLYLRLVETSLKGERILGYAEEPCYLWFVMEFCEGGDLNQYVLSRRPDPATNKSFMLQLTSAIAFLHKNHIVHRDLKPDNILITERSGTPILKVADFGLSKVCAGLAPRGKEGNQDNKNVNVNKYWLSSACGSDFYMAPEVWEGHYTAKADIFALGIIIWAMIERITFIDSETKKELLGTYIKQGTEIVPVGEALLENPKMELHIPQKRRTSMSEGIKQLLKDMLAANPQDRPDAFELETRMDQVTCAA

[12] = molecular target: Serine/threonine-protein kinase 25 (Homo sapiens) (UniProt O00506); test: Inhibition of DNA-tagged human YSK1 assessed as percent of control at 50000 nM by qPCR analysis relative to control
[13] = molecular target: Ephrin type-B receptor 1 (Homo sapiens) (UniProt P54762); test: Inhibition of DNA-tagged human EPHB1 assessed as percent of control at 50000 nM by qPCR analysis relative to control
[14] = molecular target: Casein kinase II subunit alpha' (Homo sapiens) (UniProt P19784); test: Inhibition of DNA-tagged human CSNK2A2 assessed as percent of control at 50000 nM by qPCR analysis relative to control
[15] = molecular target: Ribosomal protein S6 kinase alpha-2 (Homo sapiens) (UniProt Q15349); test: Inhibition of DNA-tagged human N-terminal RSK3 kinase domain 1 assessed as percent of control at 50000 nM by qPCR analysis relative to control
Chain of Ribosomal protein S6 kinase alpha-2 (Homo sapiens) (Q15349 whole entry, the tested form may be a part): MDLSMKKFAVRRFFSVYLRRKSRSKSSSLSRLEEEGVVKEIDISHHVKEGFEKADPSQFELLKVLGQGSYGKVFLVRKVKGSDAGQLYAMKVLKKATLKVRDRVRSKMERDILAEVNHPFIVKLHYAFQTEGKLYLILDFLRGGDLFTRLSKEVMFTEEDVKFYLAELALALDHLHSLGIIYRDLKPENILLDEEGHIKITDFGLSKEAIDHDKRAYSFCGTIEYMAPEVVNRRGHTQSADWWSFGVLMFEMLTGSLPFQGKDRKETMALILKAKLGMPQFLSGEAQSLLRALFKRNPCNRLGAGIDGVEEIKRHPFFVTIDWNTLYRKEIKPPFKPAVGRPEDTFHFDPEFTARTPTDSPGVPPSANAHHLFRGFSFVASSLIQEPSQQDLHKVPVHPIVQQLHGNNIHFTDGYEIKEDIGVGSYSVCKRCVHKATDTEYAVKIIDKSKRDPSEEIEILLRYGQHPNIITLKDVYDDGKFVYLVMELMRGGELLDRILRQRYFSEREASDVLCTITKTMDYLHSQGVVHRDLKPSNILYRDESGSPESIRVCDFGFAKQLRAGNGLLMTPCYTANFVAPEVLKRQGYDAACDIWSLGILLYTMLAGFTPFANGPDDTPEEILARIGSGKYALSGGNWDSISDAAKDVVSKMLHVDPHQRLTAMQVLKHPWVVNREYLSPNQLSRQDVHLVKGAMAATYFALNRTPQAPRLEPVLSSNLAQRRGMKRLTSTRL

[16] = molecular target: STE20/SPS1-related proline-alanine-rich protein kinase (Homo sapiens) (UniProt Q9UEW8); test: Inhibition of DNA-tagged human STK39 assessed as percent of control at 50000 nM by qPCR analysis relative to control
[17] = molecular target: Serine/threonine-protein kinase Nek9 (Homo sapiens) (UniProt Q8TD19); test: Inhibition of DNA-tagged human NEK9 assessed as percent of control at 50000 nM by qPCR analysis relative to control
[18] = test system: Epidermal growth factor receptor (Homo sapiens), P00533 [UNDEFINED MUTATION]; test: Inhibition of DNA-tagged human EGFR L747-T751del/Sins double mutant assessed as percent of control at 50000 nM by qPCR analysis relative to control
[19] = molecular target: Death-associated protein kinase 3 (Homo sapiens) (UniProt O43293); test: Inhibition of DNA-tagged human DAPK3 assessed as percent of control at 50000 nM by qPCR analysis relative to control
[20] = test system: Epidermal growth factor receptor (Homo sapiens), P00533 [L861Q]; test: Inhibition of DNA-tagged human EGFR L861Q mutant assessed as percent of control at 50000 nM by qPCR analysis relative to control
[21] = molecular target: Ribosomal protein S6 kinase alpha-2 (Homo sapiens) (UniProt Q15349); test: Inhibition of DNA-tagged human C-terminal RSK3 kinase domain 2 assessed as percent of control at 50000 nM by qPCR analysis relative to control
[22] = test system: Receptor-type tyrosine-protein kinase FLT3 (Homo sapiens), P36888 [N841I]; test: Inhibition of DNA-tagged human FLT3 N841I mutant assessed as percent of control at 50000 nM by qPCR analysis relative to control
[23] = molecular target: Proto-oncogene tyrosine-protein kinase Src (Homo sapiens) (UniProt P12931); test: Inhibition of DNA-tagged human SRC assessed as percent of control at 50000 nM by qPCR analysis relative to control
Chain of Proto-oncogene tyrosine-protein kinase Src (Homo sapiens) (P12931 2-536 limits assumed): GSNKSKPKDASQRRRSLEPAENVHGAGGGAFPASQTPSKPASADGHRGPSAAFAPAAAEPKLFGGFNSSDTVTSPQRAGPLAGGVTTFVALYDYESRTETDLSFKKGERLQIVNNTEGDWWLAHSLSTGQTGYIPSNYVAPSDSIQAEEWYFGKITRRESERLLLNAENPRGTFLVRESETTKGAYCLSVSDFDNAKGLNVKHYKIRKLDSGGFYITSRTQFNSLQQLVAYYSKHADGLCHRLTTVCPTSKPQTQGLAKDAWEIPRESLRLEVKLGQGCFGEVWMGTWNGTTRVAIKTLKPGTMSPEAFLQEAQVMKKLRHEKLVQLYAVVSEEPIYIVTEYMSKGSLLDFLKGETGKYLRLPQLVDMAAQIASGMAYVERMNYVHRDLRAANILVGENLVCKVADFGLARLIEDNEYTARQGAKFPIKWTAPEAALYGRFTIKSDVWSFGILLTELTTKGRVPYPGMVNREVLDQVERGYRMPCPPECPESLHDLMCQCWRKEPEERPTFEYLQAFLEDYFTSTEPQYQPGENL

[24] = molecular target: Proto-oncogene tyrosine-protein kinase ROS (Homo sapiens) (UniProt P08922); test: Inhibition of DNA-tagged human ROS1 assessed as percent of control at 50000 nM by qPCR analysis relative to control
[25] = molecular target: Cytoplasmic tyrosine-protein kinase BMX (Homo sapiens) (UniProt P51813); test: Inhibition of DNA-tagged human BMX assessed as percent of control at 50000 nM by qPCR analysis relative to control
[26] = molecular target: Serine/threonine-protein kinase PRP4 homolog (Homo sapiens) (UniProt Q13523); test: Inhibition of DNA-tagged human PRP4 assessed as percent of control at 50000 nM by qPCR analysis relative to control
[27] = molecular target: Serine/threonine-protein kinase Nek1 (Homo sapiens) (UniProt Q96PY6); test: Inhibition of DNA-tagged human NEK1 assessed as percent of control at 50000 nM by qPCR analysis relative to control
[28] = molecular target: Serine/threonine-protein kinase 32A (Homo sapiens) (UniProt Q8WU08); test: Inhibition of DNA-tagged human YANK1 assessed as percent of control at 50000 nM by qPCR analysis relative to control
[29] = molecular target: Mitogen-activated protein kinase kinase kinase kinase 3 (Homo sapiens) (UniProt Q8IVH8); test: Inhibition of DNA-tagged human MAP4K3 assessed as percent of control at 50000 nM by qPCR analysis relative to control

Chain of Tyrosine-protein kinase Fgr (Homo sapiens) (P09769 2-529 limits assumed): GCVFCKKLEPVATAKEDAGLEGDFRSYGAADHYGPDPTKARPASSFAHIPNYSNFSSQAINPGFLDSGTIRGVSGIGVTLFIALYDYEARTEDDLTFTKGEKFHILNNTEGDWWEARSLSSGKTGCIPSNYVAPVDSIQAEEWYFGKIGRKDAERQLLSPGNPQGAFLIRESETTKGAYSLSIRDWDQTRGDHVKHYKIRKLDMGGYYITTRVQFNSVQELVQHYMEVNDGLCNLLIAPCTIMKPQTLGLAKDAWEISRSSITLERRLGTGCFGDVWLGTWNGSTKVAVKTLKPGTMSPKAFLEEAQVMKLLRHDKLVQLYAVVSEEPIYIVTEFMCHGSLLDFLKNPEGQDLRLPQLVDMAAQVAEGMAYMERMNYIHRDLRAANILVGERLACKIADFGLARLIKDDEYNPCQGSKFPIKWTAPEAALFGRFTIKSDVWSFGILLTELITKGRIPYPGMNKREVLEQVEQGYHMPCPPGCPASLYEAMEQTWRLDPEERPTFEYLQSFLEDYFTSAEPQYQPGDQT

CN1C(=O)/C(=C2/C(=O)Nc3ccccc32)c2ccccc21
Activity [1]: 95% | Activity [2]: 81% | Activity [3]: 84% | Activity [4]: 100% | Activity [5]: 90% | Activity [6]: 100% | Activity [7]: 100% | Activity [8]: 82% | Activity [9]: 81% | Activity [10]: 100% | Activity [11]: 89% | Activity [12]: 40% | Activity [13]: 97% | Activity [14]: 82% | Activity [15]: 100% | Activity [16]: 78% | Activity [17]: 33% | Activity [18]: 87% | Activity [19]: 93% | Activity [20]: 83% | Activity [21]: 92% | Activity [22]: 100% | Activity [23]: 100% | Activity [24]: 81% | Activity [25]: 89% | Activity [26]: 89% | Activity [27]: 92% | Activity [28]: 99% | Activity [29]: 90%
